Here are results for 2 compounds from patent US10160867B2, “Benzoxaborole-containing coating resistant to cellulose-supportable fungus” (THE PENN STATE RESEARCH FOUNDATION, priority 2015, dated 2018).

One may read the MIC as the smallest concentration in the dilution series that meets the test's criterion for growth inhibition.

Holding throughout (assay type): cell-based
One assay deals with Alternaria alternata. The experiment in a line: 3 day MIC, broth microdilution in 25% PDB. The settings on record: 72 h, 25% PDB, read-out: 3 day MIC. Here is the method: (§1) Stock solutions (concentrations of between 4,000 μg/mL to 10,000 μg/mL; stored at −18° C.) of the above antifungals were prepared in dimethyl sulfoxide (DMSO). The stock solutions were further diluted into sterile 25% potato dextrose broth (PDB) so that the diluted solutions could be used for the antifungal susceptibility studies. This way, a typical microdilution study would reach a final ratio of about 0.5-2% v/v of DMSO in 25% PDB.
(§2) Spore inocula were prepared in sterile distilled water with 0.1% Tween® 20 (a polysorbate surfactant), and a hemocytometer was used to determine the spore density. Typically, the spore inoculum was prepared fresh prior to each study, and the inoculum was appropriately diluted to a final concentration of 0.4-1×10^5 spores/mL or colony-forming unit (CFU)/mL in each study. The spore suspension can be stored in a refrigerator at 4° C. for up to one week.
(§3) The studies were performed in flat bottom, 96-well microtiter plates (Greiner Bio-One, Frickenhausen, Germany).
(§4) Plates sealed with clear polyester film (VWR, Radnor, Pa.) were incubated at a temperature of about 25° C. The progress of fungal growth was monitored at 48 hours and 72 hours.
For orientation: Dilution methods test growth across graded concentrations, often in twofold steps.

Assay [1] has as its system Stachybotrys chartarum. The experiment in a line: 3 day MIC, broth microdilution in 25% PDB. The settings on record: 72 h, 25% PDB, read-out: 3 day MIC. Here is the method:
as §1, §2, §3, §4

For the next assay, the system named is Aspergillus flavus. The experiment in a line: 3 day MIC, broth microdilution in 25% PDB. The settings on record: 72 h. Here is the method:
as §1, §2
(§5) The minimal inhibitory concentrations (MICs) for individual antifungal agents were determined by following a modified broth microdilution protocol CLSI (Clinical and Laboratory Standards Institute) M38-A2 [Clinical and Laboratory Standards Institute (2008) Reference method for broth dilution antifungal susceptibility testing of filamentous fungi—2nd edition: Approved Standard M38-A2, CLSI, Wayne, Pa.] where 25% potato dextrose broth (PDB) was used as the medium. The studies were performed in flat bottom, 96-well microtiter plates (Greiner Bio-One, Frickenhausen, Germany).
as §4

A further assay relates to Aspergillus fumigatus. The experiment in a line: 3 day MIC, broth microdilution in 25% PDB. The settings on record: 72 h. The protocol: as §1, §2, §5, §4
Another assay concerns Aspergillus niger. The experiment in a line: 3 day MIC, broth microdilution in 25% PDB. The settings on record: 72 h. Here is the method:
as §1, §2, §5, §4

Another assay relates to Aureobasidium pullulans. Nature of the assay: 3 day MIC, broth microdilution in 25% PDB. The following applies: 72 h. The protocol: as §1, §2, §5, §4
The test system of a further assay is Fusarium oxysparum ST-33. Nature of the assay: 3 day MIC, broth microdilution in 25% PDB. The settings on record: ST33, 72 h. The protocol: as §1, §2, §5, §4
The test system of another assay is Mucor spp. The experiment in a line: 3 day MIC, broth microdilution in 25% PDB. The settings on record: 72 h. Here is the method:
as §1, §2, §5, §4

For another assay, the system named is Rhizopus spp. The experiment in a line: 3 day MIC, broth microdilution in 25% PDB. The settings on record: 72 h. The protocol:
as §1, §2, §5, §4

In assay [2] the test system is Stachybotrys chartarum. Nature of the assay: Fungus resistance test after painting over fungal growth (defacement rating). The settings on record: painting over contaminated surfaces; paints containing 100 μg/mL; after 7 days. From the text: In this series of experiments, fungal growth was allowed to cover a painted surface (surface containing 2 coats of the unaltered paint) to a defacement rating of 3-5, forming a ‘contaminated surface’. […] The paint application was extended approximately 1-2 cm beyond the edge of the disc onto the NSA medium. Each formulation used a separate brush to avoid cross contamination. The re-painted discs were placed back into the humid environment with elevated temperature to encourage fungal growth.
This test was used to evaluate the ability of paint films containing antifungal additives to prevent the re-emergence of fungal growth after painting over existing growth.
Olympic® Home interior flat latex paint (PPG Industries, Pittsburgh, Pa.) and Valspar® QuikHide White flat interior paint (Valspar Corporation, Minneapolis, Minn.) were used for the experiments in this study unless specified. Stock solutions of the antifungal additives of interest were prepared in reagent grade dimethyl sulfoxide (DMSO; Alfa Aesar, Ward Hill, Mass.). Additives were spiked (by adding appropriate amounts of the antifungal stock solutions) into the liquid paint at specified concentrations. Samples of additive-spiked paint were vigorously mixed with a vortex mixer for at least one minute to insure uniform dispersion of the additive in the paint. […] Studies that used other brands of paint followed the same protocol as described for those using the Olympic® Home interior flat latex paint.
Test surfaces were prepared in triplicate. In most cases, the tested conditions were repeated on a different date, again in triplicate. […] Two coats of paint were applied with a polyester brush to completely cover both faces of the filter paper disc, allowing at least four hours drying time between coats.
Nutrient-Salts Agar (NSA) media was prepared according to ASTM method G21-13 in 100×15 mm sterile polystyrene petri dishes (VWR® Radnor, Pa.) with a solidified agar layer from 3 to 6 mm (⅛ to ¼ in.) in depth. The agar was allowed to solidify for at least 24 hours before being used. The painted test filter paper discs were placed in the center of the agar plates in a biosafety hood while wearing clean nitrile gloves.
The paint coatings were evaluated against three representative fungi: Stachybotrys chartarum, Penicillium chrysogenum, and Alternaria alternata. […] Fungal isolates of Alternaria alternata and Penicillium chrysogenum were obtained from the Plant Pathology and Environmental Microbiology Department at Penn State University.
A spore suspension of each of these fungi was prepared by pouring a 20-mL portion of autoclaved deionized water containing 0.01% Tween® 20 onto a subculture of each fungal species. Spores were counted with the use of a hemocytometer (Hausser Scientific, Horsham, Pa.) under a microscope. Spore suspensions of Stachybotrys chartarum and Penicillium chrysogenum were diluted to 1×10^6 spores/mL with autoclaved deionized water. Spore suspensions of Alternaria alternata were used “as is” in the range of 200,000 to 400,000 spores/mL.
Painted test surfaces were inoculated with a spray bottle or with a cotton-tipped applicator. To inoculate the sample with a spray bottle, the spore suspension was sprayed twice on the painted test discs with a spray bottle that delivered approximately 0.14 g of fluid per spray. To inoculate the sample with a cotton-tipped applicator, an autoclaved cotton-tipped applicator was submerged in approximately 400 μL of the inoculum solution and applied evenly over the surface of the painted test surface twice.

In brackets after ≈: the same amount, converted by molar mass. Some results are limits rather than exact numbers.

With `Nc1ccc2c(c1)COB2O` [Compound B6, 5-Amino-1,3-dihydro-2,1-benzoxaborol-1-ol], the MIC was 200 µg/mL (≈ 1340 µM) in the assay on Alternaria alternata; 64 µg/mL (≈ 430 µM) with Stachybotrys chartarum [1]; above 64 µg/mL against Aspergillus flavus; above 64 µg/mL against Aspergillus fumigatus; above 64 µg/mL against Aspergillus niger; above 64 µg/mL in the assay on Aureobasidium pullulans. For the same compound, the MIC in the assay on Fusarium oxysparum ST-33, in the assay with Mucor spp. and with Rhizopus spp. was above 64 µg/mL throughout. Besides, in the assay with Stachybotrys chartarum [2], the “ability to inhibit Stachybotrys chartarum re-emergence on the surfaces” value is “very little ability to inhibit”.
For the compound `Cc1ccc2c(c1)COB2O` [Compound B1, 5-Methyl-1,3-dihydro-2,1-benzoxaborol-1-ol], the MIC in the assay on Alternaria alternata stood at 6.3 µg/mL (≈ 42.6 µM); in the assay on Stachybotrys chartarum [1], 0.5 µg/mL (≈ 3.38 µM); with Aspergillus flavus, 2 µg/mL (≈ 13.5 µM); against Aspergillus fumigatus it was 0.25 µg/mL (≈ 1.69 µM); with Aspergillus niger it was 2 µg/mL (≈ 13.5 µM); against Aureobasidium pullulans, 1 µg/mL (≈ 6.76 µM). The MIC in the assay with Fusarium oxysparum ST-33 came out at 1 µg/mL (≈ 6.76 µM); against Mucor spp., 1 µg/mL (≈ 6.76 µM); with Rhizopus spp. it was 16 µg/mL (≈ 108 µM). Moreover, in the assay on Stachybotrys chartarum [2], the “ability to inhibit Stachybotrys chartarum re-emergence on the surfaces” value is “very little ability to inhibit”.
